Molecules are shown by their SMILES. ≈ marks a conversion by molar mass, not a printed value.

We go through 5 compounds from patent US7256187B2, “Rifamycin C-11 oxime derivatives effective against drug-resistant microbes” (Cumbre Pharmaceuticals Inc., priority 2004, dated 2007).

Holding throughout (assay type): cell-based
Assay [1] has as its system Staphylococcus aureus ATCC29213. Put plainly: MIC, microbroth dilution. To be noted: Staphylococcus aureus ATCC29213, rifS; read-out: Antimicrobial activity (MIC). On the technique in general: Dilution methods test growth across graded concentrations, often in twofold steps.
For assay [2], the system named is Staphylococcus aureus ATCC29213 rpoB^D417Y. Kind of assay: microbe, parasite or virus in culture. To be noted: Staphylococcus aureus ATCC29213 rpoB^D417Y, rifR; read-out: Antimicrobial activity (MIC). On the procedure: (§1) Representative compounds were assayed for antimicrobial activity as follows: Minimum Inhibitory Concentrations (“MICs”) were determined by the microbroth dilution method as per NCCLS guidelines (National Committee for Clinical Laboratory Standards. 2000. Methods for dilution antimicrobial susceptibility tests for bacteria that grow aerobically, 5th ed. M7-A5. National Committee for Clinical Laboratory Standards, Wayne, Pa.), except that all growth incubations were conducted at 37° C. Bacterial cultures were tested in the following bacteriological media: S. aureus, S. epidermidis, and E. coli in Cation-Adjusted Mueller-Hinton Broth, S. pneumoniae in THY Broth supplemented with 1 mg/mL catalase under 5% CO2 atmosphere, S. pyogenes in THY Broth, E. faecalis in BHI Broth, H. influenzae in BHI Broth supplemented with 0.75 μL of 1 mg/mL NAD and 150 μL of 1 mg/ml hematin per 5 mL, and M. smegmatis in Middlebrook Broth plus ADC Enrichment.
(§2) S. aureus ATCC 29213 RpoB^H418Y is a rifampin-resistant strain with a mutation in the RpoB gene of RNA polymerase. […] S. aureus EN1252a gyrA^S84L grlA^S80F is a quinolone-resistant strain due to double gene mutations of DNA gyrase and topoisomerase IV.

Assay [3] deals with Staphylococcus aureus ATCC29213 rpoB^H418Y. Put plainly: microbe, parasite or virus in culture. To be noted: Staphylococcus aureus ATCC29213 rpoB^H418Y, rifR; read-out: Antimicrobial activity (MIC). Here is the method:
as §1, §2

In assay [4] the test system is Staphylococcus aureus EN1252a gyrA^S84L grlA^S80F. Put plainly: microbe, parasite or virus in culture. To be noted: Staphylococcus aureus EN1252a gyrA^S84L grlA^S80F, cipR; read-out: Antimicrobial activity (MIC). Here is the method: as §1, §2
Assay [5] relates to Staphylococcus epidermidis ATCC12228. Put plainly: MIC, microbroth dilution. To be noted: Staphylococcus epidermidis ATCC12228, rifS; read-out: Antimicrobial activity (MIC).
Assay [6] concerns Streptococcus pneumoniae ATCC6303. Put plainly: MIC, microbroth dilution. The following applies: Streptococcus pneumoniae ATCC6303, rifS; read-out: Antimicrobial activity (MIC).
In assay [7] the test system is Streptococcus pyogenes ATCC19615. Kind of assay: MIC, microbroth dilution. To be noted: Streptococcus pyogenes ATCC19615, rifS; read-out: Antimicrobial activity (MIC).
Assay [8] concerns Enterococcus faecalis ATCC29212. Kind of assay: MIC, microbroth dilution. The following applies: Enterococcus faecalis ATCC29212, rifS; read-out: Antimicrobial activity (MIC).
For assay [9], the system named is Haemophilus influenzae ATCC10211. Kind of assay: MIC, microbroth dilution. To be noted: Haemophilus influenzae ATCC10211, rifS; read-out: Antimicrobial activity (MIC).
The test system of assay [10] is Escherichia coli ATCC25922. Put plainly: MIC, microbroth dilution. The following applies: Escherichia coli ATCC25922, rifS; read-out: Antimicrobial activity (MIC).
For assay [11], the system named is Mycobacterium smegmatis ATCC700084. Kind of assay: MIC, microbroth dilution. The following applies: Mycolicibacterium smegmatis; Mycobacterium smegmatis ATCC700084, rifS; read-out: Antimicrobial activity (MIC).

Take `CO[C@H]1/C=C/O[C@@]2(C)Oc3c(C)c(O)c4c(c3/C2=N/OCCN2CCN(c3cc5c(cc3F)c(=O)c(C(=O)O)cn5C3CC3)CC2)C(=O)C=C(NC(=O)/C(C)=C\C=C\[C@H](C)[C@H](O)[C@@H](C)[C@@H](O)[C@@H](C)[C@H](OC(C)=O)[C@@H]1C)C4=O` [Example 15]: the MIC in [1] is 0.004 to 0.5 µg/mL (≈ 0.00374 to 0.468 µM); in assay [2] it was 0.25 to 32 µg/mL (≈ 0.234 to 30 µM); in assay [3], 0.125 to 16 µg/mL (≈ 0.117 to 15 µM); in assay [4], 0.004 to 0.5 µg/mL (≈ 0.00374 to 0.468 µM); in assay [5], 0.0005 to 0.063 µg/mL (≈ 0.000468 to 0.059 µM); in assay [6] it was 0.0002 to 0.125 µg/mL (≈ 0.000187 to 0.117 µM). Besides, the MIC lay within 0.0005 to 0.063 µg/mL (≈ 0.000468 to 0.059 µM) in assay [7]; 2 to 32 µg/mL (≈ 1.87 to 30 µM) in assay [8]; 0.03 to 2 µg/mL (≈ 0.0281 to 1.87 µM) in [9]; 0.125 to 8 µg/mL (≈ 0.117 to 7.49 µM) in assay [10]; 0.5 to 64 µg/mL (≈ 0.468 to 59.9 µM) in [11].
For the compound `CO[C@H]1/C=C/O[C@@]2(C)Oc3c(C)c(O)c4c(c3/C2=N/OCCN2CCN(c3ccc(N5C[C@H](CNC(C)=O)OC5=O)cc3F)CC2)C(=O)C=C(NC(=O)/C(C)=C\C=C\[C@H](C)[C@H](O)[C@@H](C)[C@@H](O)[C@@H](C)[C@H](OC(C)=O)[C@@H]1C)C4=O` [Example 16], the MIC lay in the range of 0.004 to 0.5 µg/mL (≈ 0.00373 to 0.466 µM) in assay [1]; 0.25 to 32 µg/mL (≈ 0.233 to 29.8 µM) in assay [2]; 0.125 to 16 µg/mL (≈ 0.116 to 14.9 µM) in assay [3]; 0.004 to 0.5 µg/mL (≈ 0.00373 to 0.466 µM) in assay [4]; 0.0005 to 0.063 µg/mL (≈ 0.000466 to 0.0587 µM) in [5]; 0.0002 to 0.125 µg/mL (≈ 0.000186 to 0.116 µM) in assay [6]. Moreover, the MIC in assay [7] was in the range of 0.0005 to 0.063 µg/mL (≈ 0.000466 to 0.0587 µM); in assay [8] it was 2 to 32 µg/mL (≈ 1.86 to 29.8 µM); in assay [9], 0.03 to 2 µg/mL (≈ 0.028 to 1.86 µM); in [10], 0.125 to 8 µg/mL (≈ 0.116 to 7.45 µM); in assay [11], 0.5 to 64 µg/mL (≈ 0.466 to 59.6 µM).
Turning to `CO[C@H]1/C=C/O[C@@]2(C)Oc3c(C)c(O)c4c(c3/C2=N/OCCN2CCN(c3ccccn3)CC2)C(=O)C=C(NC(=O)/C(C)=C\C=C\[C@H](C)[C@H](O)[C@@H](C)[C@@H](O)[C@@H](C)[C@H](OC(C)=O)[C@@H]1C)C4=O` [Example 17], the MIC in assay [1] fell in the range of 0.004 to 0.5 µg/mL (≈ 0.00444 to 0.556 µM); in assay [2] it was 0.25 to 32 µg/mL (≈ 0.278 to 35.6 µM); in assay [3], 0.125 to 16 µg/mL (≈ 0.139 to 17.8 µM); in assay [4], 0.004 to 0.5 µg/mL (≈ 0.00444 to 0.556 µM); in assay [5] it was 0.0005 to 0.063 µg/mL (≈ 0.000556 to 0.07 µM); in [6], 0.0002 to 0.125 µg/mL (≈ 0.000222 to 0.139 µM). In addition, the MIC in assay [7] was 0.0005 to 0.063 µg/mL (≈ 0.000556 to 0.07 µM); in [8] it was 2 to 32 µg/mL (≈ 2.22 to 35.6 µM); in assay [9], 0.03 to 2 µg/mL (≈ 0.0333 to 2.22 µM); in [10] it was 0.125 to 8 µg/mL (≈ 0.139 to 8.89 µM); in assay [11] it was 0.5 to 64 µg/mL (≈ 0.556 to 71.1 µM).
As to `CO[C@H]1/C=C/O[C@@]2(C)Oc3c(C)c(O)c4c(c3/C2=N/OCCN2CCN(c3cccc(C(F)(F)F)c3)CC2)C(=O)C=C(NC(=O)/C(C)=C\C=C\[C@H](C)[C@H](O)[C@@H](C)[C@@H](O)[C@@H](C)[C@H](OC(C)=O)[C@@H]1C)C4=O` [Example 18, 11-Deoxy-11-{2-[4-(3-trifluoromethyl-phenyl)-piperazin-1-yl]ethoxyimino}rifamycin S], the MIC was 0.004 to 0.5 µg/mL (≈ 0.00414 to 0.517 µM) in assay [1]; 0.25 to 32 µg/mL (≈ 0.259 to 33.1 µM) in assay [2]; 0.125 to 16 µg/mL (≈ 0.129 to 16.5 µM) in [3]; 0.004 to 0.5 µg/mL (≈ 0.00414 to 0.517 µM) in assay [4]; 0.0005 to 0.063 µg/mL (≈ 0.000517 to 0.0651 µM) in [5]; 0.0002 to 0.125 µg/mL (≈ 0.000207 to 0.129 µM) in assay [6]. The MIC in assay [7] is 0.0005 to 0.063 µg/mL (≈ 0.000517 to 0.0651 µM); in assay [8] it was 2 to 32 µg/mL (≈ 2.07 to 33.1 µM); in assay [9] it was 0.03 to 2 µg/mL (≈ 0.031 to 2.07 µM); in [10] it was 0.125 to 8 µg/mL (≈ 0.129 to 8.27 µM); in assay [11] it was 0.5 to 64 µg/mL (≈ 0.517 to 66.2 µM).
In the case of `CO[C@H]1/C=C/O[C@@]2(C)Oc3c(C)c(O)c4c(c3/C2=N/OCCN2CCN(S(=O)(=O)c3cccc5ccncc35)CC2)C(=O)C=C(NC(=O)/C(C)=C\C=C\[C@H](C)[C@H](O)[C@@H](C)[C@@H](O)[C@@H](C)[C@H](OC(C)=O)[C@@H]1C)C4=O` [Example 19, 11-Deoxy-11-{2-[4-(isoquinoline-8-sulfonyl)-piperazin-1-yl]-ethoxyimino}rifamycin S], the MIC lay within 0.004 to 0.5 µg/mL (≈ 0.00394 to 0.493 µM) in assay [1]; 0.25 to 32 µg/mL (≈ 0.247 to 31.6 µM) in assay [2]; 0.125 to 16 µg/mL (≈ 0.123 to 15.8 µM) in assay [3]; 0.004 to 0.5 µg/mL (≈ 0.00394 to 0.493 µM) in assay [4]; 0.0005 to 0.063 µg/mL (≈ 0.000493 to 0.0621 µM) in assay [5]; 0.0002 to 0.125 µg/mL (≈ 0.000197 to 0.123 µM) in assay [6]. The MIC in assay [7] was in the range of 0.0005 to 0.063 µg/mL (≈ 0.000493 to 0.0621 µM); in assay [8] it was 2 to 32 µg/mL (≈ 1.97 to 31.6 µM); in [9], 0.03 to 2 µg/mL (≈ 0.0296 to 1.97 µM); in assay [10], 0.125 to 8 µg/mL (≈ 0.123 to 7.89 µM); in assay [11], 0.5 to 64 µg/mL (≈ 0.493 to 63.1 µM).
